“Also recorded” adds a separate entry of the source.
How the values were obtained:
[1] = Single time point pharmacokinetic screening, released DON in plasma and tumor of EL4 tumor-bearing mice; assay type: in vivo, C57BL/6/CES1–/– mice; settings: 1 mg/kg DON equivalent SC; 30 min
Experimental: C57BL/6/CES1^–/– mice were obtained as a gift from the United States Army Medical Research Institute of Chemical Defense, Maryland, USA; breeding was performed in the Johns Hopkins animal facility and was conducted according to protocols reviewed and approved by the Johns Hopkins Institutional Animal Care and Use Committee in compliance with the Association for Assessment and Accreditation of Laboratory Animal Care International (AAALAC) and the Public Health Service Policy on the Humane Care and Use of Laboratory Animals (PHS Policy). Male and female C57BL/6 mice (weighing between 25 and 30 g) 6–8 weeks of age were used for the study. The animals were maintained on a 12 h light–dark cycle with ad libitum access to food (certified laboratory food: Teklad 18% Protein Extruded Rodent Diet) and water. EL4 mouse lymphoma cells were obtained as a gift from the laboratory of Dr. Jonathan Powell (Johns Hopkins University, Baltimore, MD) and maintained in RPMI 1640 medium 1X (Corning, cat. no. 10-040-CV) with 10% (v/v) fetal bovine serum (Corning, cat. no. 35-011-CV), 1% (v/v) antimycotic/antibiotic (Corning, cat. no. 30-004-CI), 2 mM L-glutamine (Corning, cat. no. 25-005-CI), and 10 mM HEPES (Corning, cat. no. 25-060-CI) in a 5% (v/v) CO2 and 95% (v/v) air incubator prior to subcutaneous (SC) injection (1 × 10^6 cells in 0.2 mL of phosphate-buffered saline) on the flank of each mouse. […]

[2] = Full pharmacokinetic evaluation of P11 in EL4 tumor-bearing mice (intact prodrug and released DON); assay type: in vivo, C57BL/6/CES1–/– mice; settings: P11 2.9 mg/kg SC, analyte intact P11
Experimental: C57BL/6/CES1^–/– mice were obtained as a gift from the United States Army Medical Research Institute of Chemical Defense, Maryland, USA; breeding was performed in the Johns Hopkins animal facility and was conducted according to protocols reviewed and approved by the Johns Hopkins Institutional Animal Care and Use Committee in compliance with the Association for Assessment and Accreditation of Laboratory Animal Care International (AAALAC) and the Public Health Service Policy on the Humane Care and Use of Laboratory Animals (PHS Policy). Male and female C57BL/6 mice (weighing between 25 and 30 g) 6–8 weeks of age were used for the study. The animals were maintained on a 12 h light–dark cycle with ad libitum access to food (certified laboratory food: Teklad 18% Protein Extruded Rodent Diet) and water. EL4 mouse lymphoma cells were obtained as a gift from the laboratory of Dr. Jonathan Powell (Johns Hopkins University, Baltimore, MD) and maintained in RPMI 1640 medium 1X (Corning, cat. no. 10-040-CV) with 10% (v/v) fetal bovine serum (Corning, cat. no. 35-011-CV), 1% (v/v) antimycotic/antibiotic (Corning, cat. no. 30-004-CI), 2 mM L-glutamine (Corning, cat. no. 25-005-CI), and 10 mM HEPES (Corning, cat. no. 25-060-CI) in a 5% (v/v) CO2 and 95% (v/v) air incubator prior to subcutaneous (SC) injection (1 × 10^6 cells in 0.2 mL of phosphate-buffered saline) on the flank of each mouse.
Pharmacokinetic study was performed after tumors grew to a mean volume of around 400 mm^3. […]
Plasma concentration levels of P11 were measured by precipitating 20 μL of plasma sample with 100 μL of methanol containing internal standard (losartan, 0.5 μM), followed by vortex mixing for 30 s and then centrifugation at 16000g for 5 min at 4 °C. […]
Chromatographic analysis was performed on an Agilent ultra-high-performance LC system coupled with an Agilent 6520 QTOF mass spectrometer (Agilent, Santa Clara, CA). […] P11 concentrations were determined by the AUC of high-resolution extracted chromatograms of P11 divided by internal standard (460.2554 m/z/423.1695 m/z). […]

P493B lymphoma cells = assay: Cell viability assay; assay type: cell-based; settings: Homo sapiens, 72 h, 72 h incubation
Experimental: Cell proliferation assays were performed as we have previously described.[19] Briefly, P493B lymphoma cells were plated in 96-well plates at a density of 20 000 cells/well in a final volume of 100 μL of growth media. P11, or DRP-104, was added to cells in half-log serial dilutions with a final concentration of 0.2% DMSO. Cells were allowed to proliferate for 72 h, and thereafter, 20 μL of CellTiter 96 AQueous (Promega no. 3580) was added per well and incubated for 2 h. Absorbance was measured at 490 nm. Relative cell viability was calculated from the difference between untreated cell wells (100%) and media well without cells (0%).

[3] = Chemical (aqueous) stability in buffer pH 7.4; assay type: physicochemical; settings: 10 μM; pH 7.4 PBS; 37 °C; 24 h; HRMS/LCMS
Experimental: The aqueous solubility was determined as previously reported with minor modifications.[48] Briefly, an excess amount of P11 or DRP-104 was added to PBS buffer (pH 7.4) and sonicated for 1 h at 37 °C to ensure saturation. After 1 h, the solution was filtered (0.45 μm PTFE), and the filtrate was diluted appropriately, and the concentration of each analyte was determined via LC–MS. Chemical stabilities of DRP-104 and P11 were done as previously described[18] with modifications. For chemical stability, prodrugs were spiked (10 μM) in buffer at pH 7.4 and incubated at 37 °C for 24 h. Prodrug disappearance was monitored using the developed HRMS methods.

intestinal tissue levels of intact prodrug (below the limit of quantification) ([2]; intestinal tissue): < 0.01 nmol/mL
AUC of intact prodrug, tumor ([2]; tumor): 0.092 nmol·h/g
AUC at 6 h ([2]; both sexes, C57BL/6/CES1–/–, mouse, plasma): 0.15 µM·h
EC50 (P493B lymphoma cells): ~300 nM
Structure (SMILES): CN(C)CC(=O)N[C@@H](Cc1ccccc1)C(=O)N[C@@H](CCC(=O)C=[N+]=[N-])C(=O)OC(C)(C)C [Prodrug P11, tert-Butyl (S)-6-Diazo-2-((S)-2-(2-(dimethylamino)acetamido)-3-phenylpropanamido)-5-oxohexanoate]
preferential DON tumor versus plasma delivery [1]: maintained the preferential DON tumor versus plasma delivery
chemical stability in buffer [3]: remained intact without any degradation; also recorded: no degradation

From article PMC10683027, “Discovery of tert-Butyl Ester Based 6-Diazo-5-oxo-L-norleucine Prodrugs for Enhanced Metabolic Stability and Tumor Delivery” (Journal of Medicinal Chemistry, 2023)
